Test results as given in PubChem BioAssay (NCI).
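Five compound concentrations were applied to cells in 96-well plates for 48 hours; endpoints were derived by simple linear interpolation of the resulting dose-response curve. GI50: concentration for 50% inhibition of growth. TGI: concentration producing complete growth inhibition.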

How the values were obtained:
Test in all cases: NCI-60 cell line screen, 48 h
786-0 renal = system: 786-0 renal
A498 renal = system: A498 renal
A549 NSCLC = system: A549 NSCLC
ACHN renal = system: ACHN renal
BT-549 breast = system: BT-549 breast
CAKI-1 renal = system: CAKI-1 renal
CCRF-CEM leukemia = system: CCRF-CEM leukemia
COLO 205 colon = system: COLO 205 colon
DU-145 prostate = system: DU-145 prostate
HCC-2998 colon = system: HCC-2998 colon
HCT-116 colon = system: HCT-116 colon
HCT-15 colon = system: HCT-15 colon
HL-60(TB) leukemia = system: HL-60(TB) leukemia
HOP-62 NSCLC = system: HOP-62 NSCLC
HOP-92 NSCLC = system: HOP-92 NSCLC
HS 578T breast = system: HS 578T breast
HT29 colon = system: HT29 colon
IGROV1 ovarian = system: IGROV1 ovarian
K-562 leukemia = system: K-562 leukemia
KM12 colon = system: KM12 colon
LOX IMVI melanoma = system: LOX IMVI melanoma
MALME-3M melanoma = system: MALME-3M melanoma
MCF7 breast = system: MCF7 breast
MDA-MB-231 breast = system: MDA-MB-231 breast
MDA-MB-435 = system: MDA-MB-435
MOLT-4 leukemia = system: MOLT-4 leukemia
NCI-H226 lung = system: NCI-H226 lung
NCI-H23 lung = system: NCI-H23 lung
NCI-H460 lung = system: NCI-H460 lung
NCI-H522 lung = system: NCI-H522 lung
NCI/ADR-RES ovarian = system: NCI/ADR-RES ovarian
OVCAR-3 ovarian = system: OVCAR-3 ovarian
OVCAR-4 ovarian = system: OVCAR-4 ovarian
OVCAR-5 ovarian = system: OVCAR-5 ovarian
OVCAR-8 ovarian = system: OVCAR-8 ovarian
PC-3 prostate = system: PC-3 prostate
RPMI-8226 leukemia = system: RPMI-8226 leukemia
RXF 393 renal = system: RXF 393 renal
SF-268 CNS = system: SF-268 CNS
SF-295 CNS = system: SF-295 CNS
SF-539 CNS = system: SF-539 CNS
SK-MEL-2 melanoma = system: SK-MEL-2 melanoma
SK-MEL-28 melanoma = system: SK-MEL-28 melanoma
SK-MEL-5 melanoma = system: SK-MEL-5 melanoma
SK-OV-3 ovarian = system: SK-OV-3 ovarian
SN12C renal = system: SN12C renal
SNB-19 CNS = system: SNB-19 CNS
SNB-75 CNS = system: SNB-75 CNS
SR leukemia = system: SR leukemia
SW-620 colon = system: SW-620 colon
T-47D breast = system: T-47D breast
TK-10 renal = system: TK-10 renal
U251 CNS = system: U251 CNS
UACC-257 melanoma = system: UACC-257 melanoma
UACC-62 melanoma = system: UACC-62 melanoma
UO-31 renal = system: UO-31 renal

In the case of `COc1cc(Nc2ccnc(NCCNc3ccnc4cc(Cl)ccc34)n2)cc(OC)c1`, the GI50 (786-0 renal) is reported as 1560 nM, the TGI (786-0 renal) is reported as 2900 nM and the GI50 (A498 renal) is reported as 175 nM. The TGI (A498 renal) was 2200 nM, the GI50 (A549 NSCLC) was 3230 nM and the TGI (A549 NSCLC) was 14800 nM. The GI50 (ACHN renal) was 1950 nM, the TGI (ACHN renal) was 5160 nM and the GI50 (BT-549 breast) was 1860 nM. For the same molecule, the TGI (BT-549 breast) was 4240 nM, the GI50 (CAKI-1 renal) was 2170 nM and the TGI (CAKI-1 renal) was 6590 nM. It also gave a GI50 (CCRF-CEM leukemia) of 2450 nM, a TGI (CCRF-CEM leukemia) of 9690 nM and a GI50 (COLO 205 colon) of 1610 nM. It also gave a TGI (COLO 205 colon) of 3460 nM, a GI50 (DU-145 prostate) of 4030 nM and a TGI (DU-145 prostate) of 15600 nM. It also gave a GI50 (HCC-2998 colon) of 1750 nM, a TGI (HCC-2998 colon) of 3780 nM and a GI50 (HCT-116 colon) of 830 nM. The TGI (HCT-116 colon) was 2580 nM, the GI50 (HCT-15 colon) was 1370 nM and the TGI (HCT-15 colon) was 3420 nM. For the same molecule, the GI50 (HL-60(TB) leukemia) was 2220 nM, the TGI (HL-60(TB) leukemia) was 5280 nM and the GI50 (HOP-62 NSCLC) was 2140 nM. It also gave a TGI (HOP-62 NSCLC) of 8360 nM, a GI50 (HOP-92 NSCLC) of 811 nM and a TGI (HOP-92 NSCLC) of 4450 nM. It also gave a GI50 (HS 578T breast) of 2180 nM, a TGI (HS 578T breast) of 5930 nM and a GI50 (HT29 colon) of 588 nM. It also gave a TGI (HT29 colon) of 3760 nM, a GI50 (IGROV1 ovarian) of 1890 nM and a TGI (IGROV1 ovarian) of 5560 nM. For the same molecule, the GI50 (K-562 leukemia) was 843 nM, the TGI (K-562 leukemia) was 3820 nM and the GI50 (KM12 colon) was 3340 nM. The TGI (KM12 colon) was 14200 nM, the GI50 (LOX IMVI melanoma) was 1470 nM and the TGI (LOX IMVI melanoma) was 2970 nM. The GI50 (MALME-3M melanoma) was 1860 nM, the TGI (MALME-3M melanoma) was 3690 nM and the GI50 (MCF7 breast) was 1610 nM. It also gave a TGI (MCF7 breast) of 3970 nM, a GI50 (MDA-MB-231 breast) of 1410 nM and a TGI (MDA-MB-231 breast) of 3740 nM. For the same molecule, the GI50 (MDA-MB-435) was 1550 nM, the TGI (MDA-MB-435) was 2950 nM and the GI50 (MOLT-4 leukemia) was 1840 nM. It also gave a TGI (MOLT-4 leukemia) of 8900 nM, a GI50 (NCI-H226 lung) of 2950 nM and a TGI (NCI-H226 lung) of 22800 nM. The GI50 (NCI-H23 lung) was 1860 nM, the TGI (NCI-H23 lung) was 14100 nM and the GI50 (NCI-H460 lung) was 1450 nM. The TGI (NCI-H460 lung) was 5310 nM, the GI50 (NCI-H522 lung) was 1780 nM and the TGI (NCI-H522 lung) was 5190 nM. For the same molecule, the GI50 (NCI/ADR-RES ovarian) was 3790 nM, the TGI (NCI/ADR-RES ovarian) was 16400 nM and the GI50 (OVCAR-3 ovarian) was 1890 nM. For the same molecule, the TGI (OVCAR-3 ovarian) was 5030 nM, the GI50 (OVCAR-4 ovarian) was 1330 nM and the TGI (OVCAR-4 ovarian) was 6560 nM. The GI50 (OVCAR-5 ovarian) was 1660 nM, the TGI (OVCAR-5 ovarian) was 6270 nM and the GI50 (OVCAR-8 ovarian) was 2520 nM. It also gave a TGI (OVCAR-8 ovarian) of 11500 nM, a GI50 (PC-3 prostate) of 2510 nM and a TGI (PC-3 prostate) of 14400 nM. The GI50 (RPMI-8226 leukemia) was 1410 nM, the TGI (RPMI-8226 leukemia) was 4450 nM and the GI50 (RXF 393 renal) was 1380 nM. For the same molecule, the TGI (RXF 393 renal) was 2940 nM, the GI50 (SF-268 CNS) was 3100 nM and the TGI (SF-268 CNS) was 12500 nM. It also gave a GI50 (SF-295 CNS) of 961 nM, a TGI (SF-295 CNS) of 2430 nM and a GI50 (SF-539 CNS) of 1480 nM. It also gave a TGI (SF-539 CNS) of 2860 nM, a GI50 (SK-MEL-2 melanoma) of 1910 nM and a TGI (SK-MEL-2 melanoma) of 4180 nM. For the same molecule, the GI50 (SK-MEL-28 melanoma) was 1760 nM, the TGI (SK-MEL-28 melanoma) was 3290 nM and the GI50 (SK-MEL-5 melanoma) was 1690 nM. The TGI (SK-MEL-5 melanoma) was 3240 nM, the GI50 (SK-OV-3 ovarian) was 8580 nM and the TGI (SK-OV-3 ovarian) was 21000 nM. For the same molecule, the GI50 (SN12C renal) was 2190 nM, the TGI (SN12C renal) was 12400 nM and the GI50 (SNB-19 CNS) was 2380 nM. The TGI (SNB-19 CNS) was 8900 nM, the GI50 (SNB-75 CNS) was 1730 nM and the TGI (SNB-75 CNS) was 3520 nM. For the same molecule, the GI50 (SR leukemia) was 1650 nM, the TGI (SR leukemia) was 6850 nM and the GI50 (SW-620 colon) was 1660 nM. The TGI (SW-620 colon) was 4180 nM, the GI50 (T-47D breast) was 1730 nM and the TGI (T-47D breast) was 4450 nM. It also gave a GI50 (TK-10 renal) of 3720 nM, a TGI (TK-10 renal) of 9710 nM and a GI50 (U251 CNS) of 1610 nM. It also gave a TGI (U251 CNS) of 4270 nM, a GI50 (UACC-257 melanoma) of 1820 nM and a TGI (UACC-257 melanoma) of 3870 nM. The GI50 (UACC-62 melanoma) was 1600 nM, the TGI (UACC-62 melanoma) was 3080 nM and the GI50 (UO-31 renal) was 1190 nM. For the same molecule, the TGI (UO-31 renal) was 2810 nM.
